Experimental data as given in patent publication US11162944B2, “Compositions and methods” (priority 2015, dated 2021).
Where two headings read alike, the source gives them in different places. Marks after values point to notes of the source that are not given here.

Test system: biomarker (antibody) in serum samples from patients with symptoms of tuberculosis
Assay type: binding, human

## CCCCCCCCCCCCCCCCCCCCCC[C@@H](C(=O)OC[C@H]1O[C@H](OC)[C@@H](O)[C@@H]1O)[C@H](O)CCCCCCCCCCCCCCCCC[C@H]1C[C@H]1CCCCCCCCCCCCCCCC[C@@H](OC)[C@@H](C)CCCCCCCCCCCCCCCCCC [Antigen E]
Serum sample 1 TB+
  ELISA absorbance at 492 nm: 0.42*
Serum sample 2 TB+
  ELISA absorbance at 492 nm: 0.36*
Serum sample 3 TB+
  ELISA absorbance at 492 nm: 0.77*
Serum sample 4 TB+
  ELISA absorbance at 492 nm: 0.90*
Serum sample 5 TB+
  ELISA absorbance at 492 nm: 0.38*
Serum sample 6 TB+
  ELISA absorbance at 492 nm: 0.54*
Serum sample 7 TB+
  ELISA absorbance at 492 nm: 1.15*
Serum sample 8 TB+
  ELISA absorbance at 492 nm: 0.69*
Serum sample 9 TB+
  ELISA absorbance at 492 nm: 0.56*
Serum sample 10 TB−
  ELISA absorbance at 492 nm: 0.35
Serum sample 11 TB−
  ELISA absorbance at 492 nm: 0.45*
Serum sample 12 TB−
  ELISA absorbance at 492 nm: 0.29
Serum sample 13 TB−
  ELISA absorbance at 492 nm: 0.34
Serum sample 14 TB−
  ELISA absorbance at 492 nm: 0.58*
Serum sample 15 TB−
  ELISA absorbance at 492 nm: 0.37*
Serum sample 16 TB−
  ELISA absorbance at 492 nm: 0.42*
Serum sample 17 TB−
  ELISA absorbance at 492 nm: 0.47*
Serum sample 18 TB−
  ELISA absorbance at 492 nm: 0.25
Serum sample 19 TB−
  ELISA absorbance at 492 nm: 0.31
Serum sample 20 TB−
  ELISA absorbance at 492 nm: 0.38*
Serum sample 21 TB−
  ELISA absorbance at 492 nm: 0.35
Serum sample 22 TB−
  ELISA absorbance at 492 nm: 0.24
Serum sample 23 TB−
  ELISA absorbance at 492 nm: 0.35*
Serum sample 24 TB−
  ELISA absorbance at 492 nm: 0.26
Serum sample 25 TB−
  ELISA absorbance at 492 nm: 0.18
Serum sample 26 TB−
  ELISA absorbance at 492 nm: 0.24
Serum sample 27 TB−
  ELISA absorbance at 492 nm: 0.33
Serum sample 28 TB−
  ELISA absorbance at 492 nm: 0.23
Serum sample 29 TB−
  ELISA absorbance at 492 nm: 0.29
Serum sample 30 TB−
  ELISA absorbance at 492 nm: 0.24
Serum sample 31 TB−
  ELISA absorbance at 492 nm: 0.30
Serum sample 32 TB−
  ELISA absorbance at 492 nm: 0.57*
Serum sample 33 TB−
  ELISA absorbance at 492 nm: 0.46*
Serum sample 34 TB−
  ELISA absorbance at 492 nm: 0.51*
Serum sample 35 TB−
  ELISA absorbance at 492 nm: 0.26
Serum sample 36 TB−
  ELISA absorbance at 492 nm: 0.23
Serum sample 37 TB−
  ELISA absorbance at 492 nm: 0.41*
Serum sample 38 TB−
  ELISA absorbance at 492 nm: 0.40*
Serum sample 39 TB−
  ELISA absorbance at 492 nm: 0.31
Serum sample 40 TB−
  ELISA absorbance at 492 nm: 0.25
Serum sample 41 TB−
  ELISA absorbance at 492 nm: 0.33
Serum sample 42 TB−
  ELISA absorbance at 492 nm: 0.42*
Serum sample 43 TB−
  ELISA absorbance at 492 nm: 0.29
Serum sample 44 TB−
  ELISA absorbance at 492 nm: 0.67*
Serum sample 45 TB−
  ELISA absorbance at 492 nm: 0.35*
Serum sample 46 TB−
  ELISA absorbance at 492 nm: 0.26
Serum sample 47 TB−
  ELISA absorbance at 492 nm: 0.41*
Serum sample 48 TB−
  ELISA absorbance at 492 nm: 0.17
Serum sample 49 TB−
  ELISA absorbance at 492 nm: 0.25
Serum sample 50 TB−
  ELISA absorbance at 492 nm: 0.30
Serum sample 51 TB−
  ELISA absorbance at 492 nm: 0.18
Serum sample 52 TB−
  ELISA absorbance at 492 nm: 0.26
Serum sample 53 TB−
  ELISA absorbance at 492 nm: 0.25
Serum sample 54 TB−
  ELISA absorbance at 492 nm: 0.20
Serum sample 55 TB−
  ELISA absorbance at 492 nm: 0.22
Serum sample 56 TB−
  ELISA absorbance at 492 nm: 0.31
Serum sample 57 TB−
  ELISA absorbance at 492 nm: 0.29
Serum sample 58 TB−
  ELISA absorbance at 492 nm: 0.28
Serum sample 59 TB−
  ELISA absorbance at 492 nm: 0.25
Serum sample 60 TB−
  ELISA absorbance at 492 nm: 0.29
Serum sample 61 TB−
  ELISA absorbance at 492 nm: 0.34
Serum sample 62 TB−
  ELISA absorbance at 492 nm: 0.35*
Serum sample 63 TB−
  ELISA absorbance at 492 nm: 0.22
Serum sample 64 TB−
  ELISA absorbance at 492 nm: 3.98*

## CCCCCCCCCCCCCCCCCCCCCCCC[C@@H](C(=O)OC[C@H]1O[C@H](OC)[C@@H](O)[C@@H]1O)[C@H](O)CCCCCCCCCCC[C@H]1CC1CCCCCCCCCCCCCC[C@H]1C[C@H]1CCCCCCCCCCCCCCCCCCCC (some centres unmarked) [Antigen F]
Serum sample 1 TB+
  ELISA absorbance at 492 nm: 0.74*
Serum sample 2 TB+
  ELISA absorbance at 492 nm: 0.76*
Serum sample 3 TB+
  ELISA absorbance at 492 nm: 0.99*
Serum sample 4 TB+
  ELISA absorbance at 492 nm: 0.97*
Serum sample 5 TB+
  ELISA absorbance at 492 nm: 0.99*
Serum sample 6 TB+
  ELISA absorbance at 492 nm: 1.39*
Serum sample 7 TB+
  ELISA absorbance at 492 nm: 1.97*
Serum sample 8 TB+
  ELISA absorbance at 492 nm: 1.67*
Serum sample 9 TB+
  ELISA absorbance at 492 nm: 1.09*
Serum sample 10 TB−
  ELISA absorbance at 492 nm: 0.59
Serum sample 11 TB−
  ELISA absorbance at 492 nm: 0.92*
Serum sample 12 TB−
  ELISA absorbance at 492 nm: 0.84*
Serum sample 13 TB−
  ELISA absorbance at 492 nm: 0.60
Serum sample 14 TB−
  ELISA absorbance at 492 nm: 1.30*
Serum sample 15 TB−
  ELISA absorbance at 492 nm: 0.64
Serum sample 16 TB−
  ELISA absorbance at 492 nm: 0.56
Serum sample 17 TB−
  ELISA absorbance at 492 nm: 0.81*
Serum sample 18 TB−
  ELISA absorbance at 492 nm: 0.68
Serum sample 19 TB−
  ELISA absorbance at 492 nm: 0.71*
Serum sample 20 TB−
  ELISA absorbance at 492 nm: 1.03*
Serum sample 21 TB−
  ELISA absorbance at 492 nm: 0.61
Serum sample 22 TB−
  ELISA absorbance at 492 nm: 0.66
Serum sample 23 TB−
  ELISA absorbance at 492 nm: 0.81*
Serum sample 24 TB−
  ELISA absorbance at 492 nm: 0.62
Serum sample 25 TB−
  ELISA absorbance at 492 nm: 0.21
Serum sample 26 TB−
  ELISA absorbance at 492 nm: 0.72
Serum sample 27 TB−
  ELISA absorbance at 492 nm: 0.61
Serum sample 28 TB−
  ELISA absorbance at 492 nm: 0.38
Serum sample 29 TB−
  ELISA absorbance at 492 nm: 0.41
Serum sample 30 TB−
  ELISA absorbance at 492 nm: 0.39
Serum sample 31 TB−
  ELISA absorbance at 492 nm: 0.51
Serum sample 32 TB−
  ELISA absorbance at 492 nm: 0.91*
Serum sample 33 TB−
  ELISA absorbance at 492 nm: 0.42
Serum sample 34 TB−
  ELISA absorbance at 492 nm: 0.49
Serum sample 35 TB−
  ELISA absorbance at 492 nm: 0.38
Serum sample 36 TB−
  ELISA absorbance at 492 nm: 0.28
Serum sample 37 TB−
  ELISA absorbance at 492 nm: 0.55
Serum sample 38 TB−
  ELISA absorbance at 492 nm: 0.52
Serum sample 39 TB−
  ELISA absorbance at 492 nm: 0.35
Serum sample 40 TB−
  ELISA absorbance at 492 nm: 0.35
Serum sample 41 TB−
  ELISA absorbance at 492 nm: 0.66
Serum sample 42 TB−
  ELISA absorbance at 492 nm: 0.55
Serum sample 43 TB−
  ELISA absorbance at 492 nm: 0.30
Serum sample 44 TB−
  ELISA absorbance at 492 nm: 0.98*
Serum sample 45 TB−
  ELISA absorbance at 492 nm: 0.43
Serum sample 46 TB−
  ELISA absorbance at 492 nm: 0.31
Serum sample 47 TB−
  ELISA absorbance at 492 nm: 0.56
Serum sample 48 TB−
  ELISA absorbance at 492 nm: 0.32
Serum sample 49 TB−
  ELISA absorbance at 492 nm: 0.51
Serum sample 50 TB−
  ELISA absorbance at 492 nm: 0.37
Serum sample 51 TB−
  ELISA absorbance at 492 nm: 0.21
Serum sample 52 TB−
  ELISA absorbance at 492 nm: 0.36
Serum sample 53 TB−
  ELISA absorbance at 492 nm: 0.26
Serum sample 54 TB−
  ELISA absorbance at 492 nm: 0.27
Serum sample 55 TB−
  ELISA absorbance at 492 nm: 0.27
Serum sample 56 TB−
  ELISA absorbance at 492 nm: 0.73*
Serum sample 57 TB−
  ELISA absorbance at 492 nm: 0.37
Serum sample 58 TB−
  ELISA absorbance at 492 nm: 0.41
Serum sample 59 TB−
  ELISA absorbance at 492 nm: 0.45
Serum sample 60 TB−
  ELISA absorbance at 492 nm: 0.44
Serum sample 61 TB−
  ELISA absorbance at 492 nm: 0.41
Serum sample 62 TB−
  ELISA absorbance at 492 nm: 0.30
Serum sample 63 TB−
  ELISA absorbance at 492 nm: 0.25
Serum sample 64 TB−
  ELISA absorbance at 492 nm: 0.29
